Publication PMC6102577, “Discovery of Pyrazolo[4,3-c]quinolines Derivatives as Potential Anti-Inflammatory Agents through Inhibiting of NO Production” (Molecules : A Journal of Synthetic Chemistry and Natural …, 2018)
Where two headings read alike, the source gives them in different places.

Key:
RAW 264.7 cells = assay: Cell viability (XTT method) of RAW 264.7 cells; assay type: cell-based; conditions: compound 10 μM, 24 h, means ± S.D.
Procedure: To evaluate whether the suppressive effect of compounds on NO production is related to cell viability, Raw 264.7 cells were treated with LPS for 24 h, and washed with 500 μL of phosphate buffer solution (PBS) before resuspended in 1 mL of culture medium. Cell viability tests were run in parallel with NO production assays with an initial cell density of 5 × 10^3 cells/well in the presence or absence of test compounds at 10 μM or 0.1% DMSO as control.

iNOS mRNA expression = assay: LPS-induced iNOS mRNA expression in RAW 264.7 cells (RT-PCR); assay type: cell-based; conditions: pretreated 2 h, LPS 0.1 μg/mL
Description: Total RNA was extracted by Trizol-Reagent (Invirogen, Carlsbad, CA, USA) according to the manufacturer’s manual. One microgram of RNA was used for the reverse transcription of first strand cDNA using the oligo dT primers. Five microliters of cDNA were used for the amplification of iNOS and GAPDH (glyceraldehyde 3-phosphate dehydrogenase) mRNA expression. The primers for rat iNOS are as follows, forward: 5′-ACTGCGTCGCTTCATTAGGT-3′ and reverse: 5′-TAGGCAAGCGCTTTACCACT-3′. The primers for rat glyceraldehydes 3-phosphate dehydrogenase are as follows, forward: 5′-ATGGCACAGTCAAGGCTGAGA-3′ reverse: 5′-AGACGCCAGTAGACTCCACGAC-3′. The amplicons were electrophoresed on a 3% agarose gel and band intensities were measured using a spectrophotometer (Thermo Fisher Scientific, Waltham, MA, USA) and normalized against GAPDH.
Figure 3 Inhibitory effects of compound 2i and 2m on LPS-induced iNOS mRNA expression. Cells (5 × 10^5 cells/well) were pretreated with the indicated concentrations of tested compounds for 2 h before incubation with 0.1 μg/mL LPS for 9 h. Total RNA was prepared for RT-PCR analysis of iNOS mRNA expression in LPS-stimulated RAW 264.7 cells. GAPDH were used as internal controls for the RT-PCR assays3.4. Inhibition of LPS-inducible COX-2 expression.

[1] = system: LPS-stimulated NO production in RAW 264.7 cells; assay: Inhibition of LPS-induced NO production (nitrite accumulation, Griess reaction) in RAW 264.7 cells; assay type: cell-based; conditions: Mus musculus; for inhibition at 10 µM: compound 10 μM, read-out: Percent Inhibition of NO Production at 10 μM
Procedure: Treatment of Raw 264.7 cells with LPS (0.1 μg/mL) for 24 h induced NO production which were assessed by measuring the accumulation of nitrite, a stable metabolite of NO, in the media based on Griess reaction. […] However, compound 2a was also highly cytotoxic, in which the survival rate of RAW 264.7 cells was only 9% at a drug concentration of 10 μM. […] The position of substitution play an important role in which substitution at para-position is usually more favorable than its ortho- or meta- counterpart in the inhibitory activity on the LPS-induced NO production. […] Various substituted groups have been introduced on the para-position of the phenyl ring.
Raw 264.7 cells, purchased from Bioresource Collection and Research Center, Taiwan, were cultured in DMEM, supplemented with 5% fetal bovine serum, 100 units/mL of penicillin, 100 μg/mL of streptomycin, 2 mM L-glutamine, and 1 mM non-essential amino acids in a 10-cm plate at a density of 1 × 10^6 cells/mL, at 37 °C in a humidified atmosphere containing 5% CO2.
Nitrite was measured by adding 100 μL of the Griess reagent (1% sulfanilamide and 0.1% N-(1-naphthyl)ethylenediamine dihydrochloride in 5% phosphoric acid) to 100 μL of medium for 5 min. The optical density at 550 nm (OD550) was measured with a microplate reader. Concentrations were calculated by comparison with the OD550 of a standard solution of sodium nitrite prepared in culture medium.

[2] = NO-scavenging activity (sodium nitroprusside, nitrite by Griess reaction); conditions: SNP 2.5 mM, compound 10 μM, light, room temperature, 60 min
Procedure: NO-scavenging effects of pyrazolo[4,3-c]quinolines 2i and 2m were measured according to the reported method. Sodium nitroprusside (SNP) (2.5 mM) was incubated alone or in combination with tested compound (10 μM) or 1400W(10 μM) in light at room temperature for 60 min.
To understand the inhibitory effects of compounds 2i and 2m on NO production, sodium nitroprusside (SNP) was freshly prepared at […] in PBS was incubated alone or in combination with 10 µM of the different compounds. SNP is an inorganic complex where NO is found as NO^+ and light irradiation is necessary for the release of NO. Therefore, incubation mixtures were incubated in light at room temperature, and nitrite levels were determined after 60 min by Griess reaction.
Figure 1 NO-scavenging effects of 1400W, compounds 2i and 2m. SNP solution (2.5 mM) in PBS was incubated alone or with tested compound (10 μM) or 1400W (10 μM) in the presence of light at room temperature for 60 min.

iNOS protein expression = assay: LPS-induced iNOS protein expression in RAW 264.7 cells (western blot); assay type: cell-based, murine; conditions: pretreated 2 h, LPS 0.1 μg/mL 24 h
Procedure: (§1) The effects of compounds 2i and 2m on iNOS and COX-2 protein expression in LPS stimulated Raw 264.7 cell were assessed by western blot. Briefly, Raw 264.7 cells were pretreated with tested compound for 2 h before stimulation in the presence or absence of LPS (0.1 μg/mL). Cells were harvested and lysed with RIPA lysis buffer (50 mM Tris–Cl, pH 8.0, 150 mM NaCl, 0.1% SDS, 0.5% NP-40, 1% sodiumdeoxycholate, 1 mM phenylmethyl-sulfonylfluoride, 1 mM EDTA, no added proteinase) at 24 h after treatment. The total protein concentration in the cell lysates was measured according to the method described by Bradford. Equal amounts (15 μg) of protein were loaded and separated by using 8% SDS–PAGE and analyzed by western blot (ECL Amersham, Bensheim, Germany). The relative expression of proteins was quantified densitometrically using the software LabWorks 4.5 and was normalized againstβ-actin.
(§2) Figure 2 Inhibition of iNOS expression by 2i and 2m in LPS-stimulated RAW 264.7 cells. Cells (5 × 10^5 cells/well) were pretreated with the indicated concentrations of tested compounds for 2 h before incubation with 0.1 μg/mL LPS for 24 h. Cell lysates were then prepared and western blots were performed using an antibody specific for murine iNOS.

COX-2 protein expression = assay: LPS-inducible COX-2 protein expression in RAW 264.7 cells (western blot); assay type: cell-based, murine; conditions: pretreated 2 h, LPS 0.1 μg/mL 24 h
Procedure: as §1
as §2, with “Figure 4” for “Figure 2”, “of COX-2” for “of iNOS”, “by compound” for “by”, “murine COX-2.” for “murine iNOS.”

[3] = RAW264.7, 24 h, RAW 264.7 cells, LPS 0.1 μg/mL 24 h, means ± S.D., read-out: IC50 (inhibition of LPS-induced NO production)
[4] = RAW264.7, training dataset, negative logarithm of IC50 values, read-out: Observed pIC50 (converted)
[5] = RAW264.7, RAW 264.7 cells, LPS 0.1 μg/mL 24 h, means ± S.D.

| SMILES | Cell Survival Rate at 10 μM (RAW 264.7 cells) | Inhibition of LPS-stimulated iNOS mRNA expression (iNOS mRNA expression) | IC50 [1, 3] | IC50 [1, 4] | inhibition at 10 µM [1, 5] | NO-scavenging effect (levels of nitrite from SNP) [2] | Inhibition of LPS-induced iNOS protein expression (iNOS protein expression) | Inhibition of LPS-induced COX-2 protein expression (COX-2 protein expression) | IC50 ([1]; RAW264.7, RAW 264.7 cells, LPS 0.1 μg/mL 24 h, means ± S.D., read-out: IC50 (inhibition of LPS-induced NO production)) |
| --- | --- | --- | --- | --- | --- | --- | --- | --- | --- |
| Nc1n[nH]c2c1c(Nc1ccc(O)cc1)nc1ccccc12 [Compound 2i, 3-amino-4-(4-hydroxyphenylamino)-1H-pyrazolo[4,3-c]-quinoline] | 87.84 ± 0.15% | inhibited the LPS-stimulated iNOS mRNA production in a dose-dependent manner | 190 ± 50 nM | 190 nM | 102 ± 2.63% | did not affect the levels of nitrite | more potent inhibitory activities than 2m | effectively suppressed the induction of COX-2 protein expression by LPS | – |
| Nc1n[nH]c2c1c(Nc1ccc(C(=O)O)cc1)nc1ccccc12 [Compound 2m, 4-(3-amino-1H-pyrazolo[4,3-c]quinolin-4-ylamino)benzoic acid] | 85.42 ± 0.77% | inhibited the LPS-stimulated iNOS mRNA production in a dose-dependent manner | 220 ± 70 nM | 250 nM | 87.7 ± 9.93% | did not affect the levels of nitrite | – | effectively suppressed the induction of COX-2 protein expression by LPS | – |
| CC(=N)NCc1cccc(CN)c1.Cl.Cl [Compound 1400w, N-[[3-(Aminomethyl)-phenyl]methyl]-ethanimidamide dihydrochloride, reference compound] | 99.54 ± 2.51% | – | – | – | 102 ± 2.16% | did not affect the levels of nitrite | – | – | 200 ± 20 nM |
